In patent US8686044B2, “Amide derivative, pest control agent containing the amide derivative, and use of the amide derivative” (Mitsui Chemicals Agro, Inc., priority 2008, dated 2014):

Key:
Assay type in all cases: in vivo
Plutella xylostella = experiment: Pesticidal test against Plutella xylostella (cabbage leaf dip); settings: foliar, 144 h, concentration 1 ppm, 2-stage larvae, examined after 6 days, 25° C., read-out: pesticidal rate
Method in brief: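 Cabbage leaf pieces dipped 30 s in test solution at a predetermined concentration, air-dried, then offered to 2nd-instar larvae, five per group in duplicate. Held at 25° C; living and dead larvae counted after 6 days.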

Spodoptera litura = experiment: Pesticidal test against Spodoptera litura (cabbage leaf dip); settings: foliar, 144 h, concentration 1 ppm, 2-stage larvae, examined after 6 days, 25° C., read-out: pesticidal rate
Method in brief: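 Cabbage leaf pieces dipped 30 seconds in compound solution at a predetermined concentration and air-dried, then offered to second-stage larvae, five per group in two replicates. Held at 25° C. Living and dead larvae counted after 6 days.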

Blattella germanica = experiment: Pesticidal test against Blattella germanica (petri dish dry film); settings: 24 h, concentration 100 ppm, female adults, examined after 1 day, 25° C., read-out: pesticidal rate
Description: Pesticidal Test against Blattella germanica
1 ml of an acetone solution in which a test compound had been prepared at a predetermined concentration was added dropwise to a petri dish having a diameter of 9 cm, and air-dried, and then the female adults of Blattella germanica were released and the petri dish was capped. They were left to stand in a thermostatic chamber at 25° C., and the numbers of the living pests and the dead pests were examined after 1 day. The test was carried out with five larvae per group in two replicates.

Helicoverpa armigera = experiment: Pesticidal test against Helicoverpa armigera (cabbage leaf disk dip); settings: foliar, 72 h, concentration 1 ppm, 2-stage larvae, examined after 3 days, 25° C., read-out: pesticidal rate
Method in brief: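 Cabbage leaf disks were dipped for 30 s in test solution at a set concentration and air-dried. Second-instar larvae were placed one per hole and held at 25 °C, with live and dead counts taken after 3 days. Five larvae per group were tested in two replicates.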

Adoxophyes honmai = experiment: Pesticidal test against Adoxophyes honmai (artificial feed dip); settings: 144 h, 2-stage larvae, examined after 6 days, 25° C., read-out: pesticidal rate; for pest or weed control at 10 ppm: concentration 10 ppm; for pest or weed control at 1 ppm: concentration 1 ppm
Method in brief: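 Thin artificial feed slices dipped 30 s in test solution at a predetermined concentration, air-dried, then offered to 2nd-stage larvae. Kept at 25° C; live and dead larvae counted after 6 days. Five larvae per group, two replicates.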

Musca domestica = experiment: Pesticidal test against Musca domestica (petri dish dry film); settings: 24 h, concentration 100 ppm, female adults, examined after 1 day, 25° C., read-out: pesticidal rate
Method in brief: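 Dry film from 1 ml acetone solution of compound at a predetermined concentration, air-dried in a 9 cm petri dish; female adult flies released and dish capped. Held at 25° C; living and dead counted after 1 day. Five insects per group, two replicates.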

Laodelphax striatellus = experiment: Pesticidal test against Laodelphax striatellus (rice seedling spray); settings: 144 h, concentration 100 ppm, 3-stage larvae, examined after 6 days, 25° C., read-out: pesticidal rate
Method in brief: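 Rice seedlings sprayed with 2.5 ml acetone solution of compound at a predetermined concentration, air-dried, then infested with third-stage Laodelphax striatellus larvae in capped water-containing tubes at 25 °C. Living and dead insects counted after 6 days; ten larvae per group, two replicates.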

O=C(Nc1cccc(C(=O)Nc2c(Br)cc(C(F)(C(F)(F)F)C(F)(F)C(F)(F)F)cc2C(F)(F)F)c1)c1ccc(Cl)nc1 (stereo not shown) [6-389]
≥ 70%: pest or weed control at 1 ppm (Plutella xylostella) | pest or weed control at 1 ppm (Spodoptera litura) | pest or weed control at 100 ppm (Blattella germanica) | pest or weed control at 1 ppm (Helicoverpa armigera) | pest or weed control at 10 ppm (Adoxophyes honmai) | pest or weed control at 100 ppm (Musca domestica)

O=C(Nc1c(Br)cc(C(F)(C(F)(F)F)C(F)(F)C(F)(F)F)cc1C(F)(F)F)c1cccc(NC(=O)c2ccccc2F)c1 (stereo not shown) [6-347]
≥ 70%: pest or weed control at 1 ppm (Plutella xylostella) | pest or weed control at 1 ppm (Spodoptera litura) | pest or weed control at 100 ppm (Blattella germanica) | pest or weed control at 100 ppm (Laodelphax striatellus) | pest or weed control at 1 ppm (Helicoverpa armigera) | pest or weed control at 1 ppm (Adoxophyes honmai) | pest or weed control at 100 ppm (Musca domestica)

N#Cc1ccc(C(=O)Nc2cccc(C(=O)Nc3c(I)cc(C(F)(C(F)(F)F)C(F)(F)C(F)(F)F)cc3I)c2F)cc1 (stereo not shown) [6-1359]
≥ 70%: pest or weed control at 1 ppm (Plutella xylostella) | pest or weed control at 1 ppm (Spodoptera litura) | pest or weed control at 100 ppm (Blattella germanica) | pest or weed control at 100 ppm (Laodelphax striatellus) | pest or weed control at 1 ppm (Helicoverpa armigera) | pest or weed control at 100 ppm (Musca domestica)

CN(C(=O)c1ccccc1F)c1cccc(C(=O)Nc2c(I)cc(C(F)(C(F)(F)F)C(F)(F)F)cc2C(F)(F)F)c1F [7-1731]
≥ 70%: pest or weed control at 1 ppm (Plutella xylostella) | pest or weed control at 1 ppm (Spodoptera litura) | pest or weed control at 100 ppm (Blattella germanica) | pest or weed control at 100 ppm (Laodelphax striatellus) | pest or weed control at 1 ppm (Helicoverpa armigera) | pest or weed control at 10 ppm (Adoxophyes honmai) | pest or weed control at 100 ppm (Musca domestica)

CN(C(=O)c1cccnc1Cl)c1cccc(C(=O)Nc2c(Br)cc(C(F)(C(F)(F)F)C(F)(F)C(F)(F)F)cc2Br)c1 (stereo not shown) [7-57]
≥ 70%: pest or weed control at 1 ppm (Plutella xylostella) | pest or weed control at 1 ppm (Spodoptera litura) | pest or weed control at 100 ppm (Blattella germanica) | pest or weed control at 100 ppm (Laodelphax striatellus) | pest or weed control at 100 ppm (Musca domestica)

O=C(Nc1cccc(C(=O)Nc2c(Br)cc(C(F)(C(F)(F)F)C(F)(F)C(F)(F)F)cc2C(F)(F)F)c1)c1ccccc1 (stereo not shown) [6-346]
≥ 70%: pest or weed control at 1 ppm (Plutella xylostella) | pest or weed control at 1 ppm (Spodoptera litura) | pest or weed control at 100 ppm (Blattella germanica) | pest or weed control at 100 ppm (Laodelphax striatellus) | pest or weed control at 100 ppm (Musca domestica)

CN(C(=O)c1c(F)cccc1F)c1cccc(C(=O)Nc2c(Br)cc(C(F)(C(F)(F)F)C(F)(F)F)cc2Br)c1F [7-1126]
≥ 70%: pest or weed control at 1 ppm (Plutella xylostella) | pest or weed control at 1 ppm (Spodoptera litura) | pest or weed control at 100 ppm (Blattella germanica) | pest or weed control at 100 ppm (Laodelphax striatellus) | pest or weed control at 100 ppm (Musca domestica)

CN(C(=O)c1cccnc1Cl)c1cccc(C(=O)Nc2c(I)cc(C(F)(C(F)(F)F)C(F)(F)F)cc2I)c1F [7-1296]
≥ 70%: pest or weed control at 1 ppm (Plutella xylostella) | pest or weed control at 1 ppm (Spodoptera litura) | pest or weed control at 100 ppm (Blattella germanica) | pest or weed control at 100 ppm (Laodelphax striatellus) | pest or weed control at 100 ppm (Musca domestica)

CN(C(=O)c1ccccc1F)c1cccc(C(=O)Nc2c(Br)cc(C(F)(C(F)(F)F)C(F)(F)F)cc2C(F)(F)F)c1F [7-1575]
≥ 70%: pest or weed control at 1 ppm (Plutella xylostella) | pest or weed control at 1 ppm (Spodoptera litura) | pest or weed control at 100 ppm (Blattella germanica) | pest or weed control at 100 ppm (Laodelphax striatellus) | pest or weed control at 100 ppm (Musca domestica)

O=C(Nc1c(Br)cc(C(F)(C(F)(F)F)C(F)(F)C(F)(F)F)cc1Br)c1cccc(NC(=O)c2ccccc2F)c1 (stereo not shown) [6-39]
≥ 70%: pest or weed control at 1 ppm (Plutella xylostella) | pest or weed control at 1 ppm (Spodoptera litura) | pest or weed control at 100 ppm (Blattella germanica) | pest or weed control at 100 ppm (Laodelphax striatellus) | pest or weed control at 100 ppm (Musca domestica)

CN(C(=O)c1c(F)cccc1F)c1cccc(C(=O)Nc2c(I)cc(C(F)(C(F)(F)F)C(F)(F)F)cc2I)c1F [7-1282]
≥ 70%: pest or weed control at 1 ppm (Plutella xylostella) | pest or weed control at 1 ppm (Spodoptera litura) | pest or weed control at 100 ppm (Blattella germanica) | pest or weed control at 100 ppm (Laodelphax striatellus) | pest or weed control at 100 ppm (Musca domestica)

O=C(Nc1c(I)cc(C(F)(C(F)(F)F)C(F)(F)C(F)(F)F)cc1C(F)(F)F)c1cccc(NC(=O)c2ccccc2F)c1 (stereo not shown) [6-503]
≥ 70%: pest or weed control at 1 ppm (Plutella xylostella) | pest or weed control at 1 ppm (Spodoptera litura) | pest or weed control at 100 ppm (Blattella germanica) | pest or weed control at 100 ppm (Laodelphax striatellus) | pest or weed control at 1 ppm (Helicoverpa armigera) | pest or weed control at 1 ppm (Adoxophyes honmai) | pest or weed control at 100 ppm (Musca domestica)

O=C(Nc1cccc(C(=O)Nc2c(Br)cc(C(F)(C(F)(F)F)C(F)(F)C(F)(F)F)cc2Br)c1)c1cccc(F)c1 (stereo not shown) [6-5905]
≥ 70%: pest or weed control at 1 ppm (Plutella xylostella) | pest or weed control at 1 ppm (Spodoptera litura) | pest or weed control at 100 ppm (Blattella germanica) | pest or weed control at 100 ppm (Laodelphax striatellus) | pest or weed control at 100 ppm (Musca domestica)
